The numbers were not newly measured in patent US20040229941A1, “Analeptic and antidepressant combinations” (Cephalon, Inc., priority 2003, published 2004), which cites them from elsewhere.

The conditions of this data set: at 6 weeks of antidepressant therapy.

As to `CNCCC(Oc1ccc(C(F)(F)F)cc1)c1ccccc1` (stereo not shown) [fluoxetine], the response entry was “about 50%”.
